Bounds are passed on as bounds.

Drawing on patent publication US11178869B2, “Microbiocidal quinoline (thio)carboxamide derivatives” (priority 2017, dated 2021), this text covers inhibition of growth, pest or weed control and melting point for 16 molecules.

Data set [1] deals with Botryotinia fuckeliana (Botrytis cinerea). Description: Botryotinia fuckeliana (Botrytis cinerea) / liquid culture (gray mould). The data set is classed as cell-based. The note with it: 72 h, 200 ppm, compared to untreated control, growth inhibition photometrically 3-4 days after application, read-out: disease control.
Data set [2] deals with Fusarium culmorum. Briefly: microbe, parasite or virus in culture. The data set is classed as cell-based. The note with it: read-out: disease control.
The test system of data set [3] is Glomerella lagenarium (Colletotrichum lagenarium). Description: Glomerella lagenarium (Colletotrichum lagenarium) / liquid culture (anthracnose). The data set is classed as cell-based. The note with it: Colletotrichum orbiculare; 200 ppm; compared to untreated control; growth inhibition photometrically 3-4 days after application; read-out: disease control.
In data set [4] the test system is Monographella nivalis (Microdochium nivale). Briefly: Monographella nivalis (Microdochium nivale) / liquid culture (foot rot cereals). The data set is classed as cell-based. Conditions: 200 ppm, compared to untreated control, growth inhibition photometrically 4-5 days after application, read-out: disease control.
Data set [5] has as its system Magnaporthe grisea (Pyricularia oryzae). Briefly: microbe, parasite or virus in culture. The data set is classed as cell-based. Conditions: read-out: control of Magnaporthe grisea.
The test system of data set [6] is Fusarium culmorum. Briefly: whole plant or invertebrate. The data set is classed as in vivo, Fusarium culmorum on wheat spikelets cv. Monsun. The note with it: in Triticum aestivum, 144 h, read-out: control of Fusarium culmorum.
In another data set the test system is Gaeumannomyces graminis. Description: Gaeumannomyces graminis / liquid culture (take-all of cereals). Conditions: compared to untreated control, 4-5 days after application. In kind it is cell-based.
The test system of another data set is Sclerotinia sclerotiorum. Description: Sclerotinia sclerotiorum / liquid culture (cottony rot). Conditions: read-out: control of Sclerotinia sclerotiorum.
For the next data set, the system named is Pyrenophora teres. Briefly: Pyrenophora teres / barley / leaf disc preventative (net blotch). The data set is classed as in vivo, Pyrenophora teres on barley leaf segments cv. Hasso. Conditions: foliar, barley leaf segments, compared to untreated control, 5-7 days after application.

Procedure for Sclerotinia sclerotiorum: Sclerotinia sclerotiorum/Liquid Culture (Cottony Rot)
Mycelia fragments of a newly grown liquid culture of the fungus are directly mixed into nutrient broth (Vogels broth). After placing a (DMSO) solution of test compound into a microtiter plate (96-well format) the nutrient broth containing the fungal material is added. The test plates are incubated at 24° C. and the inhibition of growth is determined photometrically 3-4 days after application.

`CCC(C)(C#Cc1ccccc1)NC(=O)c1cnc2c(C#N)cccc2c1` (stereo not drawn) [Compound F-10, 8-cyano-N-(1-ethyl-1-methyl-3-phenyl-prop-2-ynyl)quinoline-3-carboxamide] registered a melting point of 172 to 174 °C. The inhibition of growth at 200 ppm in data set [1] is no less than 80%. The inhibition of growth at 200 ppm in the data set on Fusarium culmorum [2] was no less than 80%. Besides, in [3], the inhibition of growth at 200 ppm was no less than 80%. In addition, in data set [4], the inhibition of growth at 200 ppm is no less than 80%. Also, the inhibition of growth at 20 ppm in [5] is no less than 80%. Moreover, the pest or weed control at 200 ppm in the data set with Fusarium culmorum [6] is no less than 80%. In the data set with Gaeumannomyces graminis, the inhibition of growth at 20 ppm was no less than 80%. Moreover, the inhibition of growth at 20 ppm with Sclerotinia sclerotiorum is no less than 80%.

As for `CC(C)C[C@@](C)(C#Cc1ccccc1)NC(=O)c1cnc2c(F)cccc2c1` [Compound G-5, N-[(1S)-1,3-dimethyl-1-(2-phenylethynyl)butyl]-8-fluoro-quinoline-3-carboxamide], the melting point is 124 to 127 °C. The inhibition of growth at 200 ppm in data set [1] is no less than 80%. The inhibition of growth at 200 ppm with Fusarium culmorum [2] was no less than 80%. Further, the inhibition of growth at 200 ppm in data set [3] was no less than 80%. The inhibition of growth at 200 ppm in [4] was no less than 80%. In [5], the inhibition of growth at 20 ppm was no less than 80%. This molecule showed an inhibition of growth at 20 ppm in the data set with Gaeumannomyces graminis of no less than 80%. Moreover, the inhibition of growth at 20 ppm with Sclerotinia sclerotiorum was no less than 80%.

For `Cc1ccc(C#CC(C)(C)NC(=O)c2cnc3c(F)cccc3c2)cc1` [Compound F-21, N-[1,1-dimethyl-3-(p-tolyl)prop-2-ynyl]-8-fluoro-quinoline-3-carboxamide], the inhibition of growth at 200 ppm (in [1]; in the data set with Fusarium culmorum [2]; in data set [3]; in [4]) was no less than 80% each time. In the data set with Pyrenophora teres, this molecule returned a pest or weed control at 200 ppm of no less than 80%.

Regarding `Cc1ccccc1C#CC(C)(C)NC(=O)c1cnc2c(F)cccc2c1` [Compound F-47, N-[1,1-dimethyl-3-(o-tolyl)prop-2-ynyl]-8-fluoro-quinoline-3-carboxamide], the melting point was in the range of 156 to 160 °C. Moreover, the inhibition of growth at 200 ppm in data set [1] was no less than 80%. The inhibition of growth at 200 ppm with Fusarium culmorum [2] is no less than 80%. Also, the inhibition of growth at 200 ppm in [3] was no less than 80%. In data set [4], the inhibition of growth at 200 ppm was no less than 80%. The inhibition of growth at 20 ppm in [5] is no less than 80%. In addition, the pest or weed control at 200 ppm in the data set on Fusarium culmorum [6] is no less than 80%. Also, the inhibition of growth at 20 ppm in the data set with Gaeumannomyces graminis is no less than 80%.

In the case of `CC(C)(C#Cc1ccccc1)NC(=O)c1cnc2ccccc2c1` [Compound F-49, N-(1,1-dimethyl-3-phenyl-prop-2-ynyl)quinoline-3-carboxamide], the melting point was in the range of 136 to 141 °C. In addition, the inhibition of growth at 200 ppm in data set [1] is no less than 80%. For the same molecule, in the data set with Fusarium culmorum [2], the inhibition of growth at 200 ppm is no less than 80%. For the same molecule, the inhibition of growth at 200 ppm in data set [3] was no less than 80%. Moreover, the inhibition of growth at 200 ppm in [4] was no less than 80%. Moreover, the inhibition of growth at 20 ppm in [5] was no less than 80%. Besides, the pest or weed control at 200 ppm in the data set with Fusarium culmorum [6] was no less than 80%. This molecule registered an inhibition of growth at 20 ppm in the data set on Gaeumannomyces graminis of no less than 80%.

On to `CC(C)C(C)(C#Cc1ccccc1)NC(=O)c1cnc2c(F)cccc2c1` (stereo not drawn) [Compound F-46, 8-fluoro-N-(1-isopropyl-1-methyl-3-phenyl-prop-2-ynyl)quinoline-3-carboxamide], for which the melting point fell in the range of 118 to 122 °C. For the same molecule, the inhibition of growth at 200 ppm in data set [1] is no less than 80%. Also, in the data set on Fusarium culmorum [2], the inhibition of growth at 200 ppm was no less than 80%. In [3], the inhibition of growth at 200 ppm was no less than 80%. The inhibition of growth at 200 ppm in [4] was no less than 80%. Moreover, in data set [5], the inhibition of growth at 20 ppm is no less than 80%. Besides, in the data set with Fusarium culmorum [6], the pest or weed control at 200 ppm was no less than 80%. Also, the inhibition of growth at 20 ppm in the data set with Gaeumannomyces graminis was no less than 80%.

As for `Cc1nc2c(F)cccc2cc1C(=O)NC(C)(C)C#Cc1ccccc1` [Compound F-50, N-(1,1-dimethyl-3-phenyl-prop-2-ynyl)-8-fluoro-2-methyl-quinoline-3-carboxamide], the melting point was in the range of 118 to 123 °C. The inhibition of growth at 200 ppm in data set [1] is no less than 80%. Moreover, the inhibition of growth at 200 ppm in the data set with Fusarium culmorum [2] was no less than 80%. Besides, the inhibition of growth at 200 ppm in data set [3] was no less than 80%. In addition, in [5], the inhibition of growth at 20 ppm was no less than 80%. The inhibition of growth at 20 ppm in the data set with Sclerotinia sclerotiorum was no less than 80%.

Consider `CCC(C)(C#Cc1ccccc1)NC(=O)c1cnc2c(C)cccc2c1` (stereo not drawn) [Compound F-9, N-(1-ethyl-1-methyl-3-phenyl-prop-2-ynyl)-8-methyl-quinoline-3-carboxamide], for which the melting point lay within 135 to 137 °C. Besides, the inhibition of growth at 200 ppm in [1] is no less than 80%. Further, in the data set with Fusarium culmorum [2], the inhibition of growth at 200 ppm was no less than 80%. In addition, the inhibition of growth at 200 ppm in data set [3] was no less than 80%. The inhibition of growth at 200 ppm in data set [4] is no less than 80%. The inhibition of growth at 20 ppm in [5] was no less than 80%. In addition, the pest or weed control at 200 ppm with Fusarium culmorum [6] was no less than 80%. For the same molecule, the inhibition of growth at 20 ppm in the data set with Sclerotinia sclerotiorum was no less than 80%.

Regarding `CC(C)C(C)(C#Cc1ccccc1F)NC(=O)c1cnc2c(F)cccc2c1` (stereo not drawn) [Compound F-12, 8-fluoro-N-[3-(2-fluorophenyl)-1-isopropyl-1-methyl-prop-2-ynyl]quinoline-3-carboxamide], the inhibition of growth at 200 ppm (in [1]; with Fusarium culmorum [2]; in data set [3]; in data set [4]) was no less than 80% in each case. Further, the inhibition of growth at 20 ppm (in data set [5]; in the data set on Gaeumannomyces graminis; in the data set with Sclerotinia sclerotiorum) was no less than 80% in each case. The pest or weed control at 200 ppm with Fusarium culmorum [6] is no less than 80%.

`CC(C)(C)C(C#Cc1ccccc1)NC(=O)c1cnc2c(F)cccc2c1` (stereo not drawn) [Compound F-5, N-(1-tert-butyl-3-phenyl-prop-2-ynyl)-8-fluoro-quinoline-3-carboxamide] returned a melting point of 179 to 181 °C. In addition, the inhibition of growth at 200 ppm in [1] was no less than 80%. Also, the inhibition of growth at 200 ppm in the data set on Fusarium culmorum [2] is no less than 80%. In addition, the inhibition of growth at 200 ppm in data set [3] was no less than 80%. Moreover, the inhibition of growth at 200 ppm in [4] was no less than 80%. Also, in [5], the inhibition of growth at 20 ppm is no less than 80%. The same molecule registered an inhibition of growth at 20 ppm in the data set on Gaeumannomyces graminis of no less than 80%. For the same molecule, the inhibition of growth at 20 ppm in the data set with Sclerotinia sclerotiorum was no less than 80%.

Consider `CCC(C)(C#Cc1ccccc1C)NC(=O)c1cnc2c(F)cccc2c1` (stereo not drawn) [Compound F-15, N-[1-ethyl-1-methyl-3-(o-tolyl)prop-2-ynyl]-8-fluoro-quinoline-3-carboxamide], for which the melting point was 143 to 146 °C. In addition, the inhibition of growth at 200 ppm in data set [1] is no less than 80%. In the data set on Fusarium culmorum [2], the inhibition of growth at 200 ppm was no less than 80%. Further, the inhibition of growth at 200 ppm in [3] was no less than 80%. In addition, in data set [4], the inhibition of growth at 200 ppm was no less than 80%. The inhibition of growth at 20 ppm in data set [5] was no less than 80%. Further, the inhibition of growth at 20 ppm in the data set with Sclerotinia sclerotiorum is no less than 80%.

As for `CC(C)[C@@](C)(C#Cc1ccccc1)NC(=O)c1cnc2c(F)cccc2c1` (single isomer, unassigned) [Compound G-7], the inhibition of growth at 200 ppm (in [1]; in the data set with Fusarium culmorum [2]; in data set [3]; in data set [4]) was no less than 80% throughout. Besides, the inhibition of growth at 20 ppm (in [5]; in the data set with Sclerotinia sclerotiorum) was no less than 80% throughout. The pest or weed control at 200 ppm in the data set with Fusarium culmorum [6] was no less than 80%.

Regarding `CC(C)(C#Cc1cccc(C(F)(F)F)c1)NC(=O)c1cnc2c(F)cccc2c1` [Compound F-48, N-[1,1-dimethyl-3-[3-(trifluoromethyl)phenyl]prop-2-ynyl]-8-fluoro-quinoline-3-carboxamide], the melting point fell in the range of 181 to 184 °C. In addition, the inhibition of growth at 200 ppm in data set [1] was no less than 80%. Moreover, the inhibition of growth at 200 ppm in the data set with Fusarium culmorum [2] was no less than 80%. Also, the inhibition of growth at 200 ppm in [3] is no less than 80%. For the same molecule, the inhibition of growth at 200 ppm in [4] was no less than 80%. For the same molecule, in [5], the inhibition of growth at 20 ppm was no less than 80%. Moreover, the inhibition of growth at 20 ppm with Gaeumannomyces graminis is no less than 80%.

In the case of `CC(C)CC(C)(C#Cc1ccccc1)NC(=O)c1cnc2c(F)cccc2c1` (stereo not drawn) [Compound F-7, N-[1,3-dimethyl-1-(2-phenylethynyl)butyl]-8-fluoro-quinoline-3-carboxamide], the melting point was 138 to 141 °C. Moreover, in data set [1], the inhibition of growth at 200 ppm was no less than 80%. For the same molecule, in the data set with Fusarium culmorum [2], the inhibition of growth at 200 ppm is no less than 80%. For the same molecule, the inhibition of growth at 200 ppm in data set [3] is no less than 80%. The inhibition of growth at 200 ppm in [4] is no less than 80%. In addition, in [5], the inhibition of growth at 20 ppm is no less than 80%. For the same molecule, the pest or weed control at 200 ppm with Fusarium culmorum [6] is no less than 80%. Moreover, in the data set with Gaeumannomyces graminis, the inhibition of growth at 20 ppm is no less than 80%. For the same molecule, the inhibition of growth at 20 ppm with Sclerotinia sclerotiorum was no less than 80%.

Take `Cc1c(C(=O)NC(C)(C)C#Cc2ccccc2)cnc2c(F)cccc12` [Compound F-51, N-(1,1-dimethyl-3-phenyl-prop-2-ynyl)-8-fluoro-4-methyl-quinoline-3-carboxamide]: the inhibition of growth at 200 ppm (in [1]; in the data set with Fusarium culmorum [2]; in [3]; in data set [4]) was no less than 80% each time. Also, the inhibition of growth at 20 ppm (in [5]; in the data set with Gaeumannomyces graminis; in the data set on Sclerotinia sclerotiorum) was no less than 80% throughout.

Take `Cc1ccc(C#CC(C)(C)NC(=O)c2cnc3c(F)cccc3c2)s1` [Compound F-35, N-[1,1-dimethyl-3-(5-methyl-2-thienyl)prop-2-ynyl]-8-fluoro-quinoline-3-carboxamide]: the inhibition of growth at 200 ppm (in [1]; with Fusarium culmorum [2]; in data set [4]) was no less than 80% each time. For the same molecule, the pest or weed control at 200 ppm in the data set with Pyrenophora teres is no less than 80%.

In general, melting point refers to the temperature of the solid-liquid transition.
